Results taken from US8343912B2, “Antibiotic compositions for the treatment of gram negative infections” (priority 2008, dated 2013).
≈ marks a conversion by molar mass, not a printed value. Numbered stars: 1 amine (or outer) side, 2 acyl side, 3 side chain; on linkers, the order of the positions; unused ones are H or OH. Bridge positions count the residues as written; N and C are the ends. Square brackets hold non-standard residues; d marks the D form. Peptide text beside a SMILES is read from it. * marks the point of attachment. NH(2-ClPh) = Clc1ccccc1N*; Dab = NCC[C@H](N)C(=O)O; CO = O=C([*:1])[*:2]

Tests used:
[1] = tested on: 5 different Gram negative pathogens; assay: Efficacy in 8 animal models with 5 Gram negative pathogens; assay type: in vivo; conditions: 8 models, mouse and rat
Method: Compound 5 was tested for efficacy in 8 models (both mouse models and rat models) with 5 different Gram negative pathogens. […]

Hygroscopicity = assay type: physicochemical
[2] = tested on: indole-positive Proteae, P. mirabilis, and S. marcescans; assay: In vitro activity against organisms intrinsically resistant to colistin; assay type: cell-based
Method: To evaluate the potency and spectrum of compounds of Formula (I), (i.e., Compounds designated 5 and 6), a study was conducted that put together a panel of 455 Gram negative strains, which included multi-drug resistant clinical isolates selected from various surveillance programs. Table 3A lists the strains that were included in the study and the activity of Compound 5, Compound 6, and colistin (polymyxin E, abbreviated PME). Strains with acquired resistance to colistin and/or carbapenems and/or broad spectrum cephalosporins were pre-selected and included in all organism groups evaluated.
(§1) MIC testing was performed according to Clinical and Laboratory Standards Institute (CLSI) M7-A7 (2006) broth microdilution methods. Unless otherwise indicated, MIC values are provided in units of micrograms per milliliter.

E. coli 1699 = assay: MIC, broth microdilution; assay type: cell-based, Escherichia coli; conditions: Table 3B
Method: as §1
One day prior to testing, individual colonies were isolated by streaking onto rich, non-selective Tryptic Soy agar with 5% lysed sheeps blood (TSAB) with incubation at 35-37° C. for 18-24 hours.
Cultures were prepared by touching 3-5 colonies into 3 mL of Cation adjusted Mueller Hinton Broth (caMHB) in a 14 mL tube (CaMHB was prepared and sterilized according to manufacturer's specifications). Cultures were grown at 37° C. 200 rpm for approximately four hours prior to density adjustment for addition to the MIC assay.
OD600 of growing cultures was measured and adjusted to approximately 10^5 colony forming units per mL (CFU/mL) in caMHB for MIC inoculation (approximately OD600 0.001).
Diluted cultures were used to inoculate 50 μL per well in broth microdilution assays (final volume 100 μl per well; compounds were prepared in two-fold dilutions).
Plates were incubated 16-20 hrs at 37° C., with shaking at 200 rpm.
OD600 was determined for all wells. Growth was defined as OD600>0.1. MICs were defined as the lowest concentration producing no visible turbidity (OD600<0.1).

[3] = Dissociation constant (pKa)
pH of aqueous solution = assay type: physicochemical; conditions: at 5 mg/mL in water
[4] = tested on: Rat kidney proximal tubule cells; assay: Cell culture cytotoxicity assay (ATP bioluminescence, LLC-PK1); assay type: cell-based; conditions: LLC-PK1, 24 hours, ATP readout
Method: Day 1: 1×10^5 to 2×10^5 cellswere inoculated (Cell line: LLC-PK1) per flask, containing 4 mL/T25 flask of medium DMEM-F12 (50/50) media supplemented with 10% FBS (Fetal Bovine Serum). The cells were then incubated at 37° C., 5% CO2, 80% RH.
Day 4: The cell cultures were examined to determine 80% confluency. To trypsinize of the 80% confluent flasks, 4 mL of DMEM-F12-10% FBS media was prepared per flask. The media was aspirated from the flask and 5 mL of Versene was added to rinse the flask. The Versene was aspirated and 2 mL of triple Express solution (trypsin solution) was added. The cells were incubated for 5 min at room temperature and examined via microscopy for the rounding of the cells and their detachment. To speed up the reaction, the flask can be incubated at 37° C. for 3 minutes. 4 mL of media (DMEM-F12-10%FBS) was added to stop the reaction. Using a 5 mL pipette, the completed reaction was pipetted up and down to ensure that the cells were properly detached from the flask and from each others. The cell number was counted using a hemocytometer slide. 100 μL of cell suspension was transferred to a tube and 100 μL of Trypan Blue was added. Inoculum for 96 well is 10,000 cells per well. For one 96 well plate, 26.3 μL×110 well=2893 μL total. 2.9 mL of cell suspension was mixed with 8.1 mL of media DMEM-F12-10% FBS and 100 μL was distributed to each well using a multichannel pipetter. The plate was then Incubated for 24 h at 37° C.
Day 5: DMEM-F12 (no FBS) medium was dispensed into tubes with the test article to achieve final concentrations of […]. The 96 well plate was taken off the incubator and media was removed from each well using multichannel pipetter. 80 μL of serially diluted compounds of Formula (I) was added to each well. Every set of concentration was done in triplicate. Media and positive controls were added to each plate and the plates were incubated for 24 hours at 37° C.
Day 6: The plates were taken from the incubator, the media was removed from each well, and 100 μL of fresh media DMEM-F12 (this is equivalent to a rinse and the media can be replaced with PBS) was added. The media is then removed and 80 μL of cell lysis solution is added. After 5 minutes, 80 μL of sterile filtered high quality water was added to each well. Using a white or black 96 well reaction plate, 80 μL of 25× diluted ATP mix reagent (Sigma Bioluminescent Somatic Cell Assay Kit [cat #FL-ASC]) was added into one column. 80 μL of diluted ATP standards (dilutions used: 250, 500, 1000, 2000 and 4000) was added and the plate was read immediately in the topcount with a 2 second read time. In another white or black 96 well reaction plate, 80 μL of 25× diluted ATP mix reagent (plate A) was added and 80 μL of lysis-water solution was transferred to each column of plate A. The plate was then read immediately in the topcount with a 2 second read time. This process was repeated for next consecutive plate and the EC50 for certain compounds of Formula I were calculated and provided in Table 4.

[5] = tested on: female cynomolgus monkeys; assay: Seven days of repeated IV administration, kidney findings (QD/BID mg/kg doses); assay type: in vivo, cynomolgus monkey; conditions: 6 mg/kg BID
Method: The kidney findings in female cynomolgus monkeys following seven days of repeated IV administration of Compound 5 were evident at dose levels of 6 mg/kg BID, 6 mg/kg QD, and 9 mg/kg QD, and to a lesser degree of severity at 3 and 4.5 mg/kg BID.

CC(C)C[C@@H]1NC(=O)[C@@H](Cc2ccccc2)NC(=O)[C@H](CCN)NC(=O)[C@@H](NC(=O)[C@H](CCN)NC(=O)[C@@H](NC(=O)[C@H](CCN)NC(=O)Nc2ccccc2Cl)[C@@H](C)O)CCNC(=O)[C@H]([C@@H](C)O)NC(=O)[C@H](CCN)NC(=O)[C@H](CCN)NC1=O [Compound 5, (S)-4-amino-N-((2S,3R)-1-((S)-4-amino-1-oxo-1-((3S,6S,9S,12S,15R,18S,21S)-6,9,18-tris(2-aminoethyl)-15-benzyl-3-((R)-1-hydroxyethyl)-12-isobutyl-2,5,8,11,14,17,20-heptaoxo-1,4,7,10,13,16,19-heptaazacyclotricosan-21-ylamino)butan-2-ylamino)-3-hydroxy-1-oxobutan-2-yl)-2-(3-(2-chlorophenyl)ureido)butanamide] ({NH(2-ClPh)-CO}-[Dab]T[Dab][Dab][Dab][dF]L[Dab][Dab]T; lactam 4-C)
models in which efficacy was demonstrated [1]: 7 out of 8 | Hygroscopicity (Hygroscopicity): Very hygroscopic | solubility (Solubility profile; ethanol): 200 µg/mL (≈ 164 µM) | solubility (Solubility profile; water): > 300000 µg/mL | activity against organisms intrinsically resistant to colistin [2]: limited activity | MIC E. coli 1699 (E. coli 1699): 2 micrograms/mL | logP (Lipophilicity (Log P)): < -1 | pKa [3]: 8.17 | pH (pH of aqueous solution): 5.9, at 5 mg/mL in water | EC50 Rat kidney proximal tubule cells [4]: >1000 micrograms/ml | blood urea nitrogen (BUN) and serum creatinine ([5]; 6 mg/kg QD, 9 mg/kg QD): increase | kidney histopathological changes ([5]; 6 and 9 mg/kg QD, lesser severity at 3 and 4.5 mg/kg BID, 7 days IV): minimal to mild degeneration/necrosis and regeneration of tubular epithelium
